Measured values taken from patent publication US4886806A, “Flavone-3-carboxylic acids compounds and pharmaceutical compositions containing them” (Kali-Chemie Pharma GmbH, priority 1987, dated 1989).
Where two headings read alike, the source gives them in different places.

Legend:
Lipoxygenase = test: LTB4 synthesis and inhibition test (lipoxygenase inhibition in vitro) in polymorphonuclear leucocytes; type: cell-based; settings: PMNL; for inhibition at 100 µM: Homo sapiens, read-out: Lipoxygenase inhib. in vitro, % inhibition of the LTB4 synthesis at 10^-4 Mol/l
Experimental: 2. In order to investigate the lipoxygenase-inhibiting properties, the inhibiting effect of the substances on the biosynthesis of leucotriene B4 (=LTB4) from arachidonic acid by activated inflamed cells was determined in vitro. Leucotriene B4, a dihydroxy fatty acid which plays an important role not only in the inflammation but also in allergic reactions was oxidatively formed, starting from arachidonic acid, by oxidation through the action of the enzyme lipoxygenase.
LTB4 Synthesis and Inhibition Test.
The combined extracts were evaporated under vacuum to dryness and the residue was taken up in 0.5 ml 30% aqueous methanol and was analyzed with the aid of high pressure liquid chromatography with phase reversal (=reversed phase-HPLC). The stationary phase (=separating medium) consisted of silica gel containing octadecyl groups chemically bound thereto (=RSIL C18 HP; produced by Autech, Darfield, Ill.). The solvent mixture is methanol:water:acetic acid (67:33:0.1; v/v/v), which had been adjusted to a pH value of 6.2 with NH3 /H2 O. The flow velocity was 1 ml/min. […] The LTB4 signals were compared with those of the control (cell incubation with solvent) and reported as percent inhibition of LTB4 synthesis compared with the controls.

[1] = test system: oxygen radical-forming activity of activated peritoneal exudate cells (PEC) of mice; test: Peak chemiluminescence (CL) test: inhibition of oxygen radical liberation from activated peritoneal exudate cells; type: cell-based; settings: 10^-4 Mol substance/l, added at peak of cell activity; for inhibition at 100 µM (stock): Mus musculus, read-out: Inhibition in vitro of the oxygen radical liberation, Chemiluminescence Test % inhibition, Pk. CL
Experimental: 1. To determine the inhibiting effect on the oxygen radical-forming activity of inflamed cells, the in vitro inhibition of the release of oxygen radicals from activated peritoneal exudate cells (=PEC) of mice was determined in the chemiluminescence (CL) test according to the method of Mueller-Peddinghaus (Int. J. Immunopharmac. 6, 455-466 (1984)). […] The intensity of the chemiluminescence is a measurement of the oxygen radical content in the suspension and thus the degree of activity of the inflamed cells. In this, three functionally different parameters are detected, the spontaneous CL, the induced CL and the peak CL. The spontaneous CL and the induced CL on the one hand and the peak CL on the other hand differ from each other because in the first two parameters the test substances are in contact with the cells for a 30 minute preincubation period before the inflammation irritant is added, whereas with the peak CL the cells are first stimulated, and the test substance is added at the peak of their activity. The measurement of the spontaneous CL thus detects the influence of the test substance on the relative rest activity of inflamed cells, the induced CL represents the effect of the test substances on the activatability of the cells and the inhibition of the peak CL indicates the effect of the test substances on the maximum activity of the inflamed cells. 1.1 Production of PEC suspension used in the test. In order to induce the PEC formation, female mice of 20-25 g body weight were each injected i.p. with 2 ml of a 3% solution of thioglycollate in sterile isotonic sodium chloride solution. Twenty four hours after the thioglycollate injection the cells, which predominantly consisted of polymorphonuclear leucocytes, were recovered by washing out of the abdominal cavity and washed twice. As cell culture medium there was added a commercially available solution under the designation RPMI 1640 (pH 7.2) (produced by Flow Laboratories, […], Germany), which contains 10% fetal calf serum (FCS, produced by Seromed GmbH, Munich, Germany) 18 μmol/l sodium bicarbonate and 2 μmol/l L-glutamine. The cell pellets of four animals each time were resuspended in cell culture medium, collected together and the suspension was made up to 2×10^6 cells per ml with cell culture medium. The cell suspensions were kept under ice cooling until their use the same day. 1.2 Production of the complement opsonized zymosan (=ZyC3 b) suspension used for activation. 200 mg zymosan (glycoprotein mixture isolated from the cell walls of brewer's yeast, Sacchomyces […], produced by Sigma Chemical Co., Munich, Germany) were suspended in 10 ml phosphate buffer solution according to Dulbecco (produced by Flow Laboratories, […], Germany), well stirred and heated for thirty minutes in a water bath to 100° C. After cooling, it was centrifuged for five minutes at 4° C. and at 600 ×g and the supernatant was discarded. The sediment was resuspended in 50 ml human serum and incubated for thirty minutes at 37° C. in a shaking water bath. Then it was centrifuged for five minutes at 600 ×g and 420 C., the supernatant decanted and the sediment washed with phosphate buffer solution. The working suspension of 8×10^-3 g ZyC3 b/ml was produced from the sediment by dilution with phosphate buffer solution (Mueller-Peddinghaus et al., Zbl. Vet. Med. B. 30, 559-575). 1.3 Chemiluminescence (CL) measurement (Peak-CL). The PEC suspension was divided into samples of 100 μl each, placed in test tubes, and these were incubated for ten minutes at a temperature of 3720 C. in a measurement device (Chemiluminescence analyzer, Laboratorium Prof. Berthold, Wildbad, Germany). Then in order to amplify the chemiluminescence, 100 μl lucigenin solution was added (final concentration 1.54×10^-4 mol/l) and incubated for 16 more minutes. The cells were then activated by the addition of 100 μl of the ZyC3 b suspension produced as described in section 1.2 plus 100 μl phosphate buffer solution. […]

[2] = 10^-4 Mol/l, Ca-ionophore A 23187, arachidonic acid

Structure (SMILES)	inhibition at 100 µM (Lipoxygenase; [2])	inhibition at 100 µM (stock) [1]	inhibition at 100 µM (Lipoxygenase)	Lipoxygenase inhib. in vitro, % inhibition of the LTB4 synthesis at 10^-4 Mol/l (Lipoxygenase; [2])	Inhibition in vitro of the oxygen radical liberation, Chemiluminescence Test % inhibition, Pk. CL [1]
O=C(NCCCCN1CCN(c2ccccn2)CC1)c1c(-c2ccccc2)oc2ccccc2c1=O [Example 4e, 3-{4-[4-(2-pyridyl)-piperazin-1-yl]-butylaminocarbonyl}flavone]	10%	76%			
O=C(NCCc1ccccn1)c1c(-c2cc(O)c(O)c(O)c2)oc2ccccc2c1=O [Example 53]	77%	77%			
O.O.O=C(O)C(O)C(O)C(=O)O.O=C(c1c(-c2cc(O)c(O)c(O)c2)oc2ccccc2c1=O)N1CCN(Cc2ccccc2)CC1 [Example 14e, 3',4',5'-trihydroxy-3-[(4-benzylpiperazin-1-yl)carbonyl] -flavone tartrate dihydrate]		99%	86%		
Cl.O=C(c1c(-c2ccccc2)oc2ccccc2c1=O)N1CCN(c2ccccn2)CC1 [Example 1c, 3-{[4-(2-Pyridyl)-piperazin-1-yl]-carbonyl}flavone hydrochloride]	52%	47%			
COc1cc(-c2oc3ccccc3c(=O)c2C(=O)N2CCN(c3ccccn3)CC2)cc(OC)c1OC [Example 7b, 3',4',5'-trimethoxy-3-{[4-(2-pyridyl)-piperazin-1-yl]-carbonyl}flavone]				42%	44%
CCN(CC)CCCOC(=O)c1c(-c2ccccc2)oc2ccccc2c1=O.Cl [Example 3b, 3-[3-(diethylamino)propoxycarbonyl]flavone hydrochloride]	8%	61%			
COc1cc(OC)c2c(=O)c(C(=O)N3CCN(c4ccccn4)CC3)c(-c3ccccc3)oc2c1 [Example 34]	25%	25%			
CC(=O)Oc1cc(-c2oc3ccccc3c(=O)c2C(=O)N2CCN(c3ccccn3)CC2)cc(OC(C)=O)c1OC(C)=O [Example 39b]	93%	99%			
O=C(c1c(-c2cccc(O)c2)oc2ccccc2c1=O)N1CCN(Cc2ccccc2)CC1 [Example 30]	44%	85%			
COc1ccc(-c2oc3ccccc3c(=O)c2C(=O)N2CCN(c3ccccn3)CC2)cc1OC [Example 32b]	25%	56%			
CN1CCN(CCCCNC(=O)c2c(-c3ccccc3)oc3ccccc3c2=O)CC1 [Example 24]	46%	1%			
COc1cc(-c2oc3ccccc3c(=O)c2C(=O)N2CCN(c3ccccn3)CC2)cc(OC)c1OC [Example 7a, 3',4',5'-trimethoxy-3-{[4-(2-pyridyl)-piperazin-1-yl]-carbonyl}flavone]	38%				68%
O.O=C(O)C(O)C(O)C(=O)O.O=C(c1c(-c2ccccc2)oc2ccccc2c1=O)N1CCN(Cc2ccccc2)CC1 [Example 2b, 3-[(4-benzyl-piperazin-1-yl)-carbonyl]flavone tartrate monohydrate]		58%	92%		
COc1cc(-c2oc3ccccc3c(=O)c2C(=O)NCCCCN2CCN(c3ncccn3)CC2)cc(OC)c1OC [Example 54]	44%	72%			
